We go through 4 compounds from PMC5293122, “Linalool, a Piper aduncum essential oil component, has selective activity against Trypanosoma cruzi trypomastigote forms at 4°C” (Memórias do Instituto Oswaldo Cruz, 2017).

≈ marks a conversion by molar mass, not a printed value. Where “and” joins values, the source holds several entries; their conditions need not be identical. Equal values may be shown once. Entries after “also recorded” stand apart in the source; their conditions may differ. Read-outs that look alike come from different tables or passages of the source.

Series [1] concerns Trypanosoma cruzi cell-derived trypomastigotes. Nature of the series: Activity on cell-derived trypomastigotes at 4 °C, 24 h, MTT assay. The series is classed as cell-based, T. cruzi clone Dm28c. Particulars: for Selectivity index (SI) - Vero cells: Table II, CC50 Vero cells / IC50 cell-derived trypomastigotes (4 °C); for IC50: Trypanosoma cruzi. On the technique in general: Tetrazolium dyes change colour on reduction, which living cells bring about.

In another series the test system is Vero cells. Kind of series: Cytotoxicity on Vero cells, MTT assay. The series is classed as cell-based. Particulars: 1 µg/mL, 24 h; not shown.
Series [2] deals with Trypanosoma cruzi cell-derived trypomastigotes. Kind of series: PaEO activity on cell-derived trypomastigotes at 28 °C, 24 h, cell counting. It is filed as cell-based, T. cruzi clone Dm28c.
Experimental: To obtain cell-derived trypomastigotes, Vero cells were incubated with cell-derived trypomastigotes (1:10 ratio of cells to parasites) in 75 cm^2 culture flasks containing 8 mL DMEM. After 4 h of interaction, non-internalised parasites were removed by rinsing with phosphate-buffered saline (PBS), new medium was added, and then changed to fresh medium every 24 h. After 96 h of infection, trypomastigotes released into the supernatant were collected by centrifugation at 3000 g for 10 min.
PaEO activity assays with cell-derived trypomastigotes were performed at 28 °C and 4 °C. […]
In series [3] the test system is Trypanosoma cruzi metacyclic trypomastigotes. Kind of series: PaEO activity on metacyclic trypomastigotes at 28 °C, 24 h, cell counting. It is filed as cell-based, T. cruzi clone Dm28c. The method, then: (§1) Parasites - In this work, we used the T. cruzi clone Dm28c. Epimastigote forms were kept at 28 °C in LIT medium supplemented with 10% inactivated FCS, with passages at every three days. For the experiments, parasites obtained from 72-h cultures were used.
To obtain metacyclic trypomastigotes, culture epimastigotes in late logarithmic growth phase (five days) were subjected to nutritional stress as described previously ([Contreras et al. 1985]). […]
Single drug activity assays on T. cruzi developmental forms - All experiments were performed in biological and technical triplicates. […] The absorbance of untreated cells in culture media containing 0.5% DMSO (control) was used as 100% cell viability, and the percentage of dead cells in each treatment was estimated by comparison with the untreated control.
For all assays, IC50/24 h values (based on cell counting, MTT data or infection index values) and dose-response curves were generated using the CompuSyn software (ComboSyn Inc., Paramus, NJ, USA), and statistical analysis was performed in Excel. For all assays, the fraction of affected cells (Fa) was calculated relative to the untreated control (treated/untreated ratio). […]

Series [4] deals with Trypanosoma cruzi epimastigotes. Nature of the series: PaEO activity on epimastigotes at 28 °C, 24 h, MTT assay. The series is classed as cell-based, T. cruzi clone Dm28c. As for the experimental part: as §1
(§2) Single drug activity assays on T. cruzi developmental forms - All experiments were performed in biological and technical triplicates. Incubations were performed for 24 h in all bioassays. The absorbance of untreated cells in culture media containing 0.5% DMSO (control) was used as 100% cell viability, and the percentage of dead cells in each treatment was estimated by comparison with the untreated control.
(§3) For all assays, IC50/24 h values (based on cell counting, MTT data or infection index values) and dose-response curves were generated using the CompuSyn software (ComboSyn Inc., Paramus, NJ, USA), and statistical analysis was performed in Excel. For all assays, the fraction of affected cells (Fa) was calculated relative to the untreated control (treated/untreated ratio).
To test the activity of PaEO on epimastigote forms, these cells were seeded into 96-well plates (5 x 10^6 cells/well) in LIT medium, and treated for 24 h at 28 °C with PaEO at the final concentrations of 9, 18, 37, 75, 150 and 300 µg/mL. […] Cell viability was assessed by the MTT assay (see “MTT assay”). […]

Series [5] deals with Trypanosoma cruzi intracellular amastigotes. Nature of the series: PaEO activity against intracellular amastigotes in Vero cells, 37 °C, 24 h, infection index. It is filed as cell-based. Particulars: for Amastigotes per cell / Infected cells (%): Vero cells; for Infection index (II): II = % infected cells x amastigotes per cell. As for the experimental part: Vero cells - Vero cells (ATCC CCL-81) were grown in RPMI-1640 medium with L-glutamine (Sigma Aldrich, St. Louis, MO, USA), supplemented with 5% fetal calf serum (FCS; Cultilab, Campinas, SP, Brazil), at 37 °C, and in a humidified 5% CO2 atmosphere. For seeding, cell monolayers were washed twice with PBS (pH 7.2), trypsinized and collected by centrifugation at 100 g for 2 min.
as §1, §2, §3
To test PaEO activity against intracellular amastigotes, Vero cells were seeded in 24-well plates (2 x 10^4 cells/well) in DMEM (Sigma-Aldrich), and allowed to adhere for 24 h. Then, cell-derived trypomastigotes were added to each well (1:10 ratio of cells to parasites), incubated for 3 h, and non-internalised parasites were removed by washing with PBS. Infected cultures were incubated for 24 h (at 37 °C, 5% CO2), and then the culture medium was replaced with RPMI-1640 containing PaEO or BZ at final concentrations between 1 and 100 µg/mL (total volume of 1 mL/well), and plates were incubated for 24 h, at 37 °C (5% CO2). Treated cells were fixed with methanol, stained with Giemsa, and the inhibitory effect on intracellular amastigotes was estimated by counting (a) the number of infected cells, and (b) the number of amastigotes per cell, in 100 cells/wells, from random light microscopy images.

Series [6] is described as follows: Cytotoxicity on Vero cells, MTT assay. The series is classed as cell-based. The note with it: African green monkey, Vero cells (ATCC CCL-81), Vero cells.
Experimental: MTT assay - After drug treatments, MTT solution (10 mg/mL in PBS) was added to each well for a final concentration of 2.5 mg/mL (or 1 mg/mL for trypomastigotes). Plates were incubated for 3 h at 28 °C in the dark, centrifuged for 10 min at 475 g and the supernatant was removed (by quick plate reversal). Then, 20 µL SDS was added to each well, followed by incubation for 1 h at 28 °C, after which 80 µL DMSO was added to each well and incubated for a further 1 h at 28 °C. Finally, the residual material was removed with the aid of a toothpick, and sample absorbance (at 550 nm) was read in an EL800 microplate reader (Biotek, Winooski, VT, USA). Dose-response curves were produced using the CompuSyn software, which was also used to calculate IC50/24 values.
Cytotoxicity - Vero cells were seeded in 96-well plates (2 x 10^4 cells/well) with RPMI-1640 medium and cultivated for 24 h at 37 °C (5% CO2). […] Then, plates were subjected to the MTT assay as described above (see “MTT assay”), and MTT data were used to calculate 50% cytotoxicity (CC50/24 h) values. Plates were examined in an inverted microscope every 12 h, to evaluate monolayer integrity (confluence and adhesion).
Another series has as its system Chagas disease. Particulars: cited from earlier work; for Treatment efficacy: ref Rassi et al. 2009.
The test system of a further series is red blood cells (RBCs). Kind of series: Cytotoxicity on red blood cells at 4 °C. The series is classed as cell-based, human. The note with it: CC50 RBCs (4 °C) / IC50 cell-derived trypomastigotes (4 °C). As for the experimental part: (§4) To analyse cytotoxicity on red blood cells (RBCs) at 4 °C, human erythrocytes were obtained from 10-mL blood samples (O+), from a healthy volunteer donor, as previously described ([Izumi et al. 2012]). After collection, blood was […] and then washed with a sterile ‘saline-glucose’ solution (0.85% NaCl/5% glucose). The final pellet was diluted in saline-glucose and centrifuged for 5 min at 1400 g. The supernatant was discarded and the pellet of RBCs was diluted in saline-glucose, for a final concentration of 6%. […] Negative control samples represented untreated RBCs diluted in saline-glucose. After treatment, plates were centrifuged at 1027 g for 2 min, and 100 µL of supernatant from each well were transferred to a new plate and analysed (at 550 nm) in an EL800 microplate reader (Biotek, Winooski, VT, USA). Cytotoxicity (CC50) values were calculated using Excel, and selectivity index (SI) values were calculated as the ratio between the CC50/24 h (for Vero cells or RBCs) and IC50/24 h values.

The nature of series [7]: Cytotoxicity on red blood cells at 4 °C. It is filed as cell-based, human. Particulars: red blood cells (erythrocytes); human RBCs, 4 °C. The method, then: as §4
For series [8], the system named is T. cruzi blood trypomastigotes (Y strain). Also on record: method as in Santoro et al. 2007b. Particulars: ref Santoro et al. 2007b; cited from earlier work.
Where [9] appears, read: Trypanosoma cruzi, 24 h, read-out: IC50/24 h.
Setting [10] is: 37 °C, read-out: Vero cells CC50/24 h.

`C=CC(C)(O)CCC=C(C)CCC=C(C)C` (mixture of isomers) [nerolidol]: the “Trypanocidal activity (light microscopy and MTT)” value in [1] (100 ng/mL to 1 µg/mL, 4 °C, 24 h, data not shown) is “no appreciable trypanocidal activity; also recorded: failed to affect significantly”. Besides, the “Integrity of Vero cell monolayers” value in the series on Vero cells was “did not affect the integrity; also recorded: remained intact”.

As to `O=C(Cn1ccnc1[N+](=O)[O-])NCc1ccccc1` [BZ, Benznidazole], the “Selectivity index (SI)” value was 63.4 in [2] (CC50 on Vero cells / IC50, cell-derived trypomastigotes 28 °C); 3,646.4 in series [3] (CC50 on Vero cells / IC50, metacyclic trypomastigotes 28 °C); 69.4 in series [4] (CC50 on Vero cells / IC50, epimastigotes 28 °C); 1,276.2 in series [5] (CC50 on Vero cells / IC50, amastigotes 37 °C). The IC50 in series [2] (setting [9]) is 16.1 µg/mL (≈ 61.9 µM); in [3] (setting [9]), 0.3 µg/mL (≈ 1.15 µM); in series [4] (setting [9]), 45 µM and 14.7 µg/mL; in series [5] (Trypanosoma cruzi, Vero, 24 h, read-out: IC50/24 h), 0.8 µg/mL (≈ 3.07 µM). In addition, the II decrease in series [5] (10 µg/mL, 24 h) was found to be 81.3%; in series [5] (50 µg/mL, 24 h) it was 99.9%. The Amastigotes per cell in [5] (10 µg/mL, 24 h) came to 2.5; in [5] (50 µg/mL, 24 h), 0.9. Moreover, the “Infected cells (%)” value in [5] (10 µg/mL, 24 h) stood at 74.9%; in series [5] (50 µg/mL, 24 h), 0.4%. In addition, the “Infection index (II)” value in [5] (10 µg/mL, 24 h) is 187.2; in series [5] (50 µg/mL, 24 h) it was 0.3. For the same compound, the CC50 at 24 h in [6] (setting [10]) was > 1000 µg/mL. For the same compound, the Treatment efficacy entry in the series on Chagas disease (acute phase of the disease) is on record as “approximately 80%”; in the series with Chagas disease (chronic phase of the disease) it was ~20%. In the series on Chagas disease (ref Bern 2011), the “Treatment discontinuation due to side effects” value is 7-13 % of cases.

On to `CN(C)c1ccc(C(=C2C=CC(=[N+](C)C)C=C2)c2ccc(N(C)C)cc2)cc1` [Gentian Violet, gentian violet], for which, in series [1], the “Selectivity index (SI) - Vero cells” value was 2.9. In the series on red blood cells (RBCs), the “Selectivity index (SI) - RBCs” value is on record as > 2.8.

For `C=CC(C)(O)CCC=C(C)C` (centres unmarked) [Linalool, linalool], the “Selectivity index (SI) - Vero cells” value in [1] is recorded as 2.7; in series [1] (listed as linalool), 2.69. Besides, the IC50 in series [1] (cell-derived trypomastigotes, 4 °C, 24 h, read-out: IC50/24 h) amounted to 0.306 µg/mL (≈ 1.98 µM); in series [1] (cell-derived trypomastigotes, 4 °C, 24 h, read-out: T. cruzi IC50/24 h) it was 0.31 µg/mL (≈ 2.01 µM). The “Times more efficient than gentian violet” value in series [1] (cell-derived trypomastigotes, 4 °C) was “approximately 80,000 times”. Besides, in series [1] (linalool at 4 °C vs BZ at 28 °C, cell-derived trypomastigotes), the “Times more effective than BZ at 28ºC” value is “approximately 52 times”. Moreover, the CC50 at 24 h is 0.87 µg/mL (≈ 5.64 µM) in [6] (setting [10]); 0.824 µg/mL (≈ 5.34 µM) in [6] (b44 prints at 4 °C, read-out: CC50/24 h); 7340 µg/mL (≈ 47600 µM) in series [7]. The “Selectivity index (SI) - RBCs” value in the series with red blood cells (RBCs) is listed as 23,990. In addition, the IC50/24 h in series [8] is given as 264 µg/mL (≈ 1710 µM).
